Like-named read-outs stand apart in the source and are kept apart here.

Assay [1] concerns the target T1, human glucocorticoid receptor (Homo sapiens, UniProt P04150).
T1 construct: purified human recombinant full-length glucocorticoid receptor (2 nM); purchased Invitrogen Part # 2893
T1 sequence (P04150 1-777): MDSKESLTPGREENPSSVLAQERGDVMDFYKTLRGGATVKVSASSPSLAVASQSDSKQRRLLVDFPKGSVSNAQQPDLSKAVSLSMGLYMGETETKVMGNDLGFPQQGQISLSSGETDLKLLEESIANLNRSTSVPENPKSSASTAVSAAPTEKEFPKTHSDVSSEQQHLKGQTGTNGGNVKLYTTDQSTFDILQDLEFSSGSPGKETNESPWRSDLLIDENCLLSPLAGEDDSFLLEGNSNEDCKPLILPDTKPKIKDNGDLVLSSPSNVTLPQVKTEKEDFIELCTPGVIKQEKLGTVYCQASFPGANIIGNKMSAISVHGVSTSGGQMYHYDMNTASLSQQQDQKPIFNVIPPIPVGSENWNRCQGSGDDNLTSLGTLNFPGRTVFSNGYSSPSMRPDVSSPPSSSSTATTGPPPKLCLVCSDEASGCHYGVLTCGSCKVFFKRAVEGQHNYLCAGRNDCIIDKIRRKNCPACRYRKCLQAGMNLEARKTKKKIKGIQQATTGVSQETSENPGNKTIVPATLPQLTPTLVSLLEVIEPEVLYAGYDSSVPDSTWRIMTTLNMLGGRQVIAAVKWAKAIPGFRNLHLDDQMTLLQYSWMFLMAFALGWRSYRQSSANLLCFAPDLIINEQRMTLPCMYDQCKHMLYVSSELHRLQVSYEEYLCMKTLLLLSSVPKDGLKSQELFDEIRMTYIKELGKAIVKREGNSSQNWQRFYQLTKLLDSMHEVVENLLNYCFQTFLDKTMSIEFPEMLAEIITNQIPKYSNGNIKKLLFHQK
Kind of assay: Glucocorticoid Receptor Binding Assay (I), fluorescence polarization competitor kit (Fluormone GS Red). The following applies: purified human recombinant full-length GR. On the procedure: In order to assess the affinity of test compounds for the human glucocorticoid receptor, a commercially available kit was used (Glucocorticoid Receptor Competitor Assay Kit, Invitrogen Part # 2893). Briefly, purified human recombinant full-length glucocorticoid receptor (2 nM) was mixed with fluorescently labeled glucocorticoid (1 nM Fluormone GS Red) in the presence or absence of test compound. After two hour incubation at room temperature in the dark, the fluorescence polarization (FP) of the samples was measured. […] Test compounds were analyzed in the concentration range from 8.5E-05 μM to 5 μM.
In general terms: In fluorescence polarisation assays a small probe gives low polarisation when free and higher when bound to something large.

The test system of assay [2] is AP-1 induced transcriptional activity. The experiment in a line: Cellular Transrepressional Assay (AP-1 luciferase reporter in A549 cells, PMA-activated). The assay is classed as cell-based. The following applies: pAP-1-Luc, 10 ng/ml PMA, read-out: AP-1 (EC50, nM) (Cellular Transrepression Assay). How it is done: To measure the ability of test molecules to inhibit AP-1 induced transcriptional activity an A549 cell was utilized which was stably transfected with a plasmid containing 7×AP-1 DNA binding sites (pAP-1-Luc plasmid, Stratagene Co. La Jolla, Calif.) followed by the gene for luciferase. Cells were activated with 10 ng/ml of phorbol myristic acid (PMA) plus or minus test molecules for 7 hours. After 7 hours a luciferase reagent was added to measure luciferase enzymatic activity in the cell. After a 10 minute incubation of luciferase reagent with cells, luminescence was measured in a TopCount luminescence counter. Repression of AP-1 activity was calculated as the percentage decrease in the signal induced by PMA alone. Test molecules were analyzed in the concentration range from 0.1 nM to 40 μM. EC50s were determined by using standard curve fitting methods such as Excel fit (Microsoft Co.).

A word on the Ki: it is the dissociation constant of the complex between target and ligand, obtained from inhibition or displacement. A word on the EC50: it is the concentration that produces a half-maximal response. With `CC(C)CC(c1ccc2c(cnn2-c2ccc(F)cc2)c1)C(C)(C)CNC(=O)NC(CO)CO` (stereo not shown) [Example 46, 1-(1,3-dihydroxypropan-2-yl)-3-(3-(1-(4-fluorophenyl)-1H-indazol-5-yl)-2,2,5-trimethylhexyl)urea], the Ki in assay [1] is 1.5 nM. Also, the EC50 in assay [2] (Homo sapiens, A549, 7 h) was 6050 nM.
In the same order, the values of `CC(C)CC(c1ccc2c(cnn2-c2ccc(F)cc2)c1)C(C)(C)CNC(=O)N[C@@H](C)C(C)(C)C` (stereo partly drawn) [Example 77, 1-((S)-3,3-dimethylbutan-2-yl)-3-(3-(1-(4-fluorophenyl)-1H-indazol-5-yl)-2,2,5-trimethylhexyl)urea] are 7.4 nM and 143 nM.
With `C=CCC(c1ccc2c(cnn2-c2ccc(F)cc2)c1)C(C)(C)CNC(=O)NC(C)(C)C` (stereo not shown) [Example 105, 1-tert-butyl-3-(3-(1-(4-fluorophenyl)-1H-indazol-5-yl)-2,2-dimethylhex-5-enyl)urea], the Ki in assay [1] worked out at 1.7 nM. In addition, the EC50 in assay [2] (Homo sapiens, A549, 7 h) was 77 nM.
On to `CC(C)CC(c1ccc2c(cnn2-c2ccc(F)cc2)c1)C(C)(C)CNC(=O)NC(CO)Cc1ccc(Cl)cc1` (stereo not shown) [Example 80, 1-(1-(4-chlorophenyl)-3-hydroxypropan-2-yl)-3-(3-(1-(4-fluorophenyl)-1H-indazol-5-yl)-2,2,5-trimethylhexyl)urea], for which, in assay [1], the Ki amounted to 3 nM. In addition, the EC50 in assay [2] (Homo sapiens, A549, 7 h) is 234 nM.
Regarding `CC(C)CC(c1ccc2[nH]ncc2c1)C(C)(C)CNC(=O)NC(C)(C)C` (stereo not shown) [Example 70, 1-(3-(1H-indazol-5-yl)-2,2,5-trimethylhexyl)-3-tert-butylurea], the Ki in assay [1] amounted to 44 nM. Moreover, in assay [2] (Homo sapiens, A549, 7 h), the EC50 was more than 10000 nM.
With `CC(C)CC(c1ccc2c(cnn2-c2ccc(F)cc2)c1)C(C)(C)CNC(=O)NC1CCOCC1` (stereo not shown) [Example 37, 1-(3-(1-(4-fluorophenyl)-1H-indazol-5-yl)-2,2,5-trimethylhexyl)-3-(tetrahydro-2H-pyran-4-yl)urea], the Ki in assay [1] stood at 5.8 nM. The EC50 in assay [2] (Homo sapiens, A549, 7 h) was more than 10000 nM.
Take `CC(CNS(=O)(=O)CC(F)(F)F)C(c1ccccc1)c1ccc2c(cnn2-c2ccc(F)cc2)c1` (single isomer, unassigned) [Example 91D, 2,2,2-trifluoro-N-(3-(1-(4-fluorophenyl)-1H-indazol-5-yl)-2-methyl-3-phenylpropyl)ethanesulfonamide]: in assay [1], the Ki came out at 74 nM. The EC50 in assay [2] (7 hours) came out at 2500 nM.
As to `CC(C)(CNC(=O)Nc1nccs1)C(C)(C)c1ccc2c(cnn2-c2ccc(F)cc2)c1` [Example 115, 1-(3-(1-(4-Fluorophenyl)-1H-indazol-5-yl)-2,2,3-trimethylbutyl)-3-(thiazol-2-yl)urea], the Ki in assay [1] came out at 16 nM. Also, the EC50 in assay [2] (Homo sapiens, A549, 7 h) was more than 10000 nM.
As for `CC(C)CC(c1ccc2c(cnn2-c2ccc(F)cc2)c1)C(C)(C)CNC(=O)NCC(C)(C)C` (stereo not shown) [Example 35, 1-(3-(1-(4-fluorophenyl)-1H-indazol-5-yl)-2,2,5-trimethylhexyl)-3-neopentylurea], the Ki in assay [1] was 2.3 nM. Moreover, the EC50 in assay [2] (Homo sapiens, A549, 7 h) stood at 159 nM.
On to `CC(C)(CNC(=O)CC(F)(F)F)[C@@H](c1ccccc1)c1ccc2c(cnn2-c2ccc(F)cc2)c1` [(S)-17, (S)-3,3,3-trifluoro-N-(3-(1-(4-fluorophenyl)-1H-indazol-5-yl)-2,2-dimethyl-3-phenylpropyl)-propanamide], for which the Ki in assay [1] was determined as 0.63 nM. The EC50 in assay [2] (Homo sapiens, A549, 7 h) was 13 nM.
For `CC(C)NC(=O)NCC(C)(C)C(C)(C)c1ccc2c(cnn2-c2ccc(F)cc2)c1` [Example 118, 1-(3-(1-(4-fluorophenyl)-1H-indazol-5-yl)-2,2,3-trimethylbutyl)-3-isopropylurea], in that order: 29 nM and 2800 nM.
For `CC(C)CC(c1ccc2c(cnn2-c2ccc(F)cc2)c1)C(C)(C)CNC(=O)N(C)C` (stereo not shown) [Example 55, 3-(3-(1-(4-fluorophenyl)-1H-indazol-5-yl)-2,2,5-trimethylhexyl)-1,1-dimethylurea], the Ki in assay [1] is 1.4 nM. In addition, the EC50 in assay [2] (Homo sapiens, A549, 7 h) is 698 nM.
For the compound `CC(CNC(=O)NC(C)(C)C)C(c1ccccc1)c1ccc2c(cnn2-c2ccc(F)cc2)c1` (single isomer, unassigned) [Example 97C, 1-tert-butyl-3-(3-(1-(4-fluorophenyl)-1H-indazol-5-yl)-2-methyl-3-phenylpropyl)urea], in assay [1], the Ki worked out at 3.5 nM. Also, the 50% effective concentration (EC50) in assay [2] (7 hours) is 158 nM.
On to `CC(C)CC(c1ccc2c(cnn2-c2ccc(F)cc2)c1)C(C)(C)CNC(=O)CC(C)(C)c1ccc(Cl)cc1` (stereo not shown) [Example 68, 3-(4-chlorophenyl)-N-(3-(1-(4-fluorophenyl)-1H-indazol-5-yl)-2,2,5-trimethylhexyl)-3-methylbutanamide], for which the Ki in assay [1] was 8.1 nM. Besides, the EC50 in assay [2] (Homo sapiens, A549, 7 h) came out at 271 nM.
For `CC(CNS(=O)(=O)CCC(F)(F)F)C(c1ccccc1)c1ccc2c(cnn2-c2ccc(F)cc2)c1` (stereo not shown) [Example 96, 3,3,3-trifluoro-N-(3-(1-(4-fluorophenyl)-1H-indazol-5-yl)-2-methyl-3-phenylpropyl)propane-1-sulfonamide], in assay [1], the Ki came to 1.6 nM. For the same compound, the EC50 in assay [2] (Homo sapiens, A549, 7 h) amounted to 58 nM.
On to `CC(C)CC(c1ccc2c(cnn2-c2ccc(F)cc2)c1)C(C)(C)CNC(=O)NC(C)(C)C(=O)Nc1ccccc1` (stereo not shown) [Example 56, 2-(3-(3-(1-(4-fluorophenyl)-1H-indazol-5-yl)-2,2,5-trimethylhexyl)ureido)-2-methyl-N-phenylpropanamide], for which the Ki in assay [1] turned out to be 6.1 nM. In assay [2] (Homo sapiens, A549, 7 h), the EC50 is 80 nM.
Consider `CC(C)CC(c1ccc2c(cnn2-c2ccc(F)cc2)c1)C(C)(C)CNC(=O)N[C@@H]1c2ccccc2C[C@@H]1O` (stereo partly drawn) [Example 78, 1-(3-(1-(4-fluorophenyl)-1H-indazol-5-yl)-2,2,5-trimethylhexyl)-3-((1R,2S)-2-hydroxy-2,3-dihydro-1H-inden-1-yl)urea], for which, in assay [1], the Ki stood at 2.2 nM. Further, the EC50 in assay [2] (Homo sapiens, A549, 7 h) is 813 nM.
Turning to `CC(C)CC(c1ccc2c(cnn2-c2ccc(F)cc2)c1)C(C)(C)CNC(=O)NC1CCN(Cc2ccccc2)CC1` (stereo not shown) [Example 79, 1-(1-benzylpiperidin-4-yl)-3-(3-(1-(4-fluorophenyl)-1H-indazol-5-yl)-2,2,5-trimethylhexyl)urea], the Ki in assay [1] was 11 nM. In addition, the EC50 in assay [2] (Homo sapiens, A549, 7 h) amounted to 5000 nM.
In the same order, the values of `CC(C)CC(c1ccc2c(cnn2-c2ccc(F)cc2)c1)C(C)(C)CNC(=O)N[C@H](C)CO` (stereo partly drawn) [Example 45, 1-(3-(1-(4-fluorophenyl)-1H-indazol-5-yl)-2,2,5-trimethylhexyl)-3-((R)-1-hydroxypropan-2-yl)urea] are 2.1 nM and 1540 nM.
In the same order, the values of `CC(C)CC(c1ccc2c(cnn2-c2ccc(F)cc2)c1)C(C)(C)CNC(=O)NC1(CO)CCCC1` (stereo not shown) [Example 42, 1-(3-(1-(4-fluorophenyl)-1H-indazol-5-yl)-2,2,5-trimethylhexyl)-3-(1-(hydroxymethyl)cyclopentyl)urea] are 2.4 nM and 682 nM.
`CC(C)CC(c1ccc2c(cnn2-c2ccc(F)cc2)c1)C(C)(C)CNC(=O)OCC(C)(C)C` (stereo not shown) [Example 62, neopentyl 3-(1-(4-fluorophenyl)-1H-indazol-5-yl)-2,2,5-trimethylhexylcarbamate]: the Ki in assay [1] worked out at 11 nM. For the same compound, the EC50 in assay [2] (Homo sapiens, A549, 7 h) is more than 10000 nM.
For `Cc1cc(C)c(S(=O)(=O)NCC(C)(C)C(CC(C)C)c2ccc3c(cnn3-c3ccc(F)cc3)c2)c(C)c1` (stereo not shown) [Example 81, N-(3-(1-(4-fluorophenyl)-1H-indazol-5-yl)-2,2,5-trimethylhexyl)-2,4,6-trimethylbenzenesulfonamide], the Ki in assay [1] was found to be 8.7 nM. Moreover, the EC50 in assay [2] (Homo sapiens, A549, 7 h) is more than 5000 nM.
For `CC(C)(C)NC(=O)NCC(C)(C)C(c1ccc2c(cnn2-c2ccc(F)cc2)c1)C1CC1` (stereo not shown) [Example 102, 1-tert-butyl-3-(3-cyclopropyl-3-(1-(4-fluorophenyl)-1H-indazol-5-yl)-2,2-dimethylpropyl)urea], the Ki in assay [1] is 8.4 nM. The EC50 in assay [2] (Homo sapiens, A549, 7 h) was found to be 691 nM.

The values are drawn from patent publication US8198311B2, “Modulators of glucocorticoid receptor, AP-1, and/or NF-κB activity and use thereof” (Bristol-Myers Squibb Company, priority 2006, dated 2012).
